Results on 49 compounds are retold here after the OPERA property sets (Mansouri et al. 2018).

Settings in one data set: not given
By melting point is commonly meant the temperature, or range, at which the solid turns liquid. `N=C(N)c1ccc(N)cc1` showed a melting point of 182 °C.

On to `NC(=O)CF`, for which the melting point was 108 °C.

Broadly, the boiling point is the temperature at which the vapour pressure of the liquid equals the pressure above it. `CCOC(OCC)OCC`: the boiling point was found to be 143 °C and the log10 vapour pressure (mmHg) was determined as 0.587.

Take `C/C(=N/Nc1nc(C)cc(C)n1)c1ccccc1C`: the log10 vapour pressure (mmHg) is -7.51 and the melting point was 176 °C.

`CCCCCCCCCCCC(=O)Cl` registered a melting point of -17 °C.

On to `CCCCCCCCCCCCCCCCCCCCCCCCCCCCCCCCCC`, for which the boiling point was determined as 483 °C, the log10 biodegradation half-life (days) came to 2.58, the melting point was determined as 72.6 °C and the ready biodegradability result is recorded as “readily biodegradable”.

For `O=C(O)CCCl`, the boiling point came to 156 °C and the melting point stood at 41 °C.

On to `CCCCCCCCC(Br)CBr` (stereo not drawn), for which the log10 vapour pressure (mmHg) is -2.43 and the melting point is 28 °C.

`CCCc1ccccc1O`: the boiling point was 220 °C, the log10 vapour pressure (mmHg) was -1.05 and the melting point came to 7 °C.

`OCCCCCCCCCO` showed a melting point of 45.8 °C.

The compound `CCCCCCCCCCCCF` came in with a log10 vapour pressure (mmHg) of -0.682.

For the compound `CCc1cc(CC)c(CC)c(CC)c1CC`, the boiling point was 277 °C.

In turn, `CC(=O)N(O)CCCCCNC(=O)CCC(=O)N(O)CCCCCNC(=O)CCC(=O)N(O)CCCCCN` displayed a melting point of 140 °C.

Compound `CCc1nc(N)nc(N)c1-c1ccc(Cl)cc1` yielded a melting point of 234 °C.

As to `CC1=C(C(=O)Nc2ccccc2)S(=O)(=O)CCO1`, the log10 Koc (L/kg) is 1.98, the log10 vapour pressure (mmHg) was -7.38 and the melting point was 120 °C.

On to `CCOC(=O)C1(S(=O)(=O)c2ccc(C)cc2)CCC1`, for which the melting point was found to be 53.5 °C.

In turn, `Fc1ccc(-c2ccc(F)cc2)cc1` showed a boiling point of 254 °C and a melting point of 94.5 °C.

As for `C#CCO`, the boiling point is 114 °C, the log10 vapour pressure (mmHg) amounted to 1.19, the melting point is -51.8 °C and the ready biodegradability entry is “readily biodegradable”.

`CC(C)(O)C(F)(F)F` gave a boiling point of 81 °C.

Turning to `COc1ccccc1CCN`, the boiling point was determined as 236 °C.

`Clc1cccc(-c2c(Cl)c(Cl)cc(Cl)c2Cl)c1Cl` gave a log10 Henry constant (atm·m³/mol) of -4.31 and a log10 vapour pressure (mmHg) of -5.96.

Compound `CCCCn1cccc1` registered a boiling point of 170 °C.

Consider `C=C(C)c1ccc(C(C)C)cc1`, for which the boiling point came out at 221 °C and the melting point was -30.6 °C.

The compound `C=CC1(C(C)CCC)C(=O)NC(=O)NC1=O` (stereo not drawn) showed a melting point of 91 °C.

Turning to `ClC#CCl`, the boiling point came to 33 °C and the melting point was -66 °C.

The compound `O=C(O)C(F)(F)C(F)(F)C(F)(F)C(F)(F)C(F)(F)C(F)(F)F` displayed a boiling point of 177 °C and a log10 vapour pressure (mmHg) of -0.876.

For `CC12CC3CC(C)(C1)CC(N)(C3)C2`, the melting point turned out to be 258 °C.

In turn, `CCCCCCCC(C)=O` returned a boiling point of 195 °C, a log10 Henry constant (atm·m³/mol) of -3.44, a log10 vapour pressure (mmHg) of -0.205 and a melting point of -7.5 °C.

The compound `CN1CC=C(c2ccccc2)CC1` registered a melting point of 40 °C.

Compound `C[C@@H](O)C(=O)c1ccccc1` registered a boiling point of 251 °C.

As for `O=[N+]([O-])c1ccc(CO)cc1`, the melting point is 96.5 °C.

With `C=CCC1=C(C)C(OC(=O)C2C(C=C(C)C)C2(C)C)CC1=O` (stereo not drawn), the log10 vapour pressure (mmHg) is -5.92, the melting point is -40 °C and the ready biodegradability result is recorded as “not readily biodegradable”.

As for `CCC(C)C(CC)CC` (stereo not drawn), the boiling point is 140 °C.

Take `Sc1ccc(Cl)cc1`: the boiling point is 206 °C and the melting point amounted to 61 °C.

In the case of `FC(F)(F)C(F)(F)C(F)(F)C(F)(F)C(F)(F)C(F)(F)C(F)(F)C(F)(F)C(F)(F)C(F)(F)C(F)(F)C(F)(F)C(F)(F)C(F)(F)C(F)(F)C(F)(F)C(F)(F)C(F)(F)C(F)(F)C(F)(F)C(F)(F)C(F)(F)C(F)(F)C(F)(F)F`, the melting point turned out to be 189 °C.

`FC(F)(F)C(F)(F)C(F)(F)C(F)(C(F)(F)F)C(F)(F)F` gave a boiling point of 57.6 °C and a melting point of -119 °C.

With `CCCCCCCCCCCCCCCCCC(=O)CCCCCCCCCCCCCCCCC`, the melting point amounted to 89 °C.

In turn, `FC1(F)C(F)(F)C(F)(F)C1(F)F` showed a boiling point of -5.9 °C, a log10 vapour pressure (mmHg) of 3.37 and a melting point of -40.1 °C.

As for `CCCCCC(C)CC` (stereo not drawn), the boiling point is 144 °C, the log10 biodegradation half-life (days) is 0.699, the log10 vapour pressure (mmHg) was 0.796 and the melting point was -108 °C.

Regarding `BrCC=Cc1ccccc1`, the melting point was determined as 34 °C.

With `C[C@H](CCC(=O)O)[C@H]1CC[C@H]2[C@@H]3C(=O)C[C@@H]4CC(=O)CC[C@]4(C)[C@H]3CC(=O)[C@]12C`, the melting point is 237 °C.

As for `N#Cc1cccc(C(=O)O)c1`, the melting point amounted to 219 °C.

Turning to `CC(=O)C(F)(F)F`, the boiling point is 22 °C and the log10 Henry constant (atm·m³/mol) was -5.11.

In turn, `COCC(C)OCC(C)OCC(C)O` (stereo not drawn) gave a boiling point of 250 °C and a log10 vapour pressure (mmHg) of -1.7.

Turning to `O=S(=O)(O)c1cccc(S(=O)(=O)O)c1`, the ready biodegradability result is given as “not readily biodegradable”.

`C=C(C)CCC=C(C)C`: the boiling point was 143 °C and the melting point was -70 °C.

The data set is the same for the next values; noted with them: fish.
For `Clc1ccc(Oc2cc(Cl)c(Cl)cc2Cl)c(Cl)c1`, the log10 biotransformation half-life (days) came out at 2.02.

On to `[Na][O]c1c(Cl)c(Cl)c(Cl)c(Cl)c1Cl`, for which the log10 BCF came out at 2.78.

The compound `Cc1cc2ccccc2c2ccccc12` returned a log10 biotransformation half-life (days) of 0.12.
